Targets include DR1 (DRB1*0101) (Homo sapiens, UniProt P01903+P01911, A100R/D57E/F55L/F60I/F76Y/I96L/L162R/M171V/P40L/Q125E/R42F/V115G/Y59C); HLA-A3.2 (A*0301) (Homo sapiens, UniProt P04439); HLA-A11 (A*1101) (Homo sapiens, UniProt P04439, A114D/D185E/E176A/F33Y/L180Q/S129P/T187R); A31 (A*3101) (Homo sapiens, UniProt P04439, A270S/D185E/E176V/E277Q/F33T/G231S/G80R/H175R/I121M/I218V/I322F/K168Q/L300P/L318F/M331R/P217A/Q94H/R138Q/T323A/T345S/T97I/V358M); A*3301 (Homo sapiens, UniProt P04439, A270S/D185E/E176V/E277Q/E87N/F33T/G231S/H175R/I121M/I218V/I322F/K168Q/K210R/L300P/L318F/M331R/P217A/Q86R/Q94H/R138Q/T323A/T345S/T97I/V358M/Y195H); A*6801 (Homo sapiens, UniProt P04439, A269V/D185E/E176V/E277Q/E87N/F33Y/G231S/I121M/I166T/I218V/L180W/L300P/L318F/N151K/P208A/P217A/Q86R/R169H/T345S).

Assay in all cases: biochemical
What all share (type): binding

Where two headings read alike, the source gives them in different places. No end group written: not given here.

Data on 35 compounds can be found in patent US9340577B2, “HLA binding motifs and peptides and their uses” (priority 1992, dated 2016).

As to “730.12 (Ac-AAAKATAAAAAA; also: non-natural residue (10)) [Peptide 730.12]”, the IC50 with DR1 (DRB1*0101) (read-out: DRB1*0101) was determined as 5000 nM.

Regarding “824.22 (AAKTAAAFA; also: non-natural residue (46)) [Peptide 824.22]”, the IC50 with DR1 (DRB1*0101) (read-out: DRB1*0101) came out at 5000 nM.

Compound `CC(C)[C@H](NC(=O)[C@@H]1CCCN1C(=O)[C@H](CCCCN)NC(=O)[C@H](CO)NC(=O)[C@H](CC(N)=O)NC(=O)[C@H](CC(N)=O)NC(=O)[C@H](CO)NC(=O)[C@H](CO)NC(=O)[C@H](Cc1ccccc1)NC(=O)[C@H](CO)NC(=O)[C@@H]1CCCN1C(=O)[C@@H](N)CCCCN)C(=O)N[C@@H](CCC(=O)O)C(=O)N[C@@H](CC(=O)O)C(=O)N[C@@H](CCCCN)C(=O)O` [Peptide 9014.0037] returned an IC50 at DR1 (DRB1*0101) of 22 nM.

Compound `CC(C)[C@H](NC(=O)[C@H](CO)NC(=O)[C@@H]1CCCN1C(=O)[C@@H](N)CCCCN)C(=O)N[C@@H](CO)C(=O)N[C@@H](CO)C(=O)N[C@@H](CC(N)=O)C(=O)N[C@@H](CC(N)=O)C(=O)N[C@@H](CO)C(=O)N[C@@H](CCCCN)C(=O)N1CCC[C@H]1C(=O)N[C@H](C(=O)N[C@@H](CCC(=O)O)C(=O)N[C@@H](CC(=O)O)C(=O)N[C@@H](CCCCN)C(=O)O)C(C)C` [Peptide 9014.0041] registered an IC50 against DR1 (DRB1*0101) of 946 nM.

For the compound `CC(C)[C@H](NC(=O)[C@@H]1CCCN1C(=O)[C@H](CCCCN)NC(=O)[C@H](CO)NC(=O)[C@H](CC(N)=O)NC(=O)[C@H](CC(N)=O)NC(=O)[C@H](CO)NC(=O)[C@H](CO)NC(=O)[C@H](Cc1c[nH]c2ccccc12)NC(=O)[C@H](CO)NC(=O)[C@@H]1CCCN1C(=O)[C@@H](N)CCCCN)C(=O)N[C@@H](CCC(=O)O)C(=O)N[C@@H](CC(=O)O)C(=O)N[C@@H](CCCCN)C(=O)O` [Peptide 9014.0042], the IC50 against DR1 (DRB1*0101) was 29 nM.

Take TVSATQLVK [Peptide 1589.08]: the IC50 against HLA-A3.2 (A*0301) is 6.5 nM; at HLA-A11 (A*1101), 4.4 nM; on A31 (A*3101), 14600 nM; against A*3301 it was above 20000 nM; on A*6801 it was 31 nM.

On to VFADLRIVYR [Peptide 78.0073], for which the IC50 against HLA-A3.2 (A*0301) was above 20000 nM; against HLA-A11 (A*1101), 2090 nM; on A31 (A*3101), 31 nM; against A*3301, 52 nM; at A*6801, 197 nM.

On to VFCGPANTGK [Peptide 88.0150], for which the IC50 on HLA-A3.2 (A*0301) worked out at 1950 nM; against HLA-A11 (A*1101) it was 1660 nM; at A31 (A*3101), 485 nM; on A*3301 it was 811 nM; at A*6801 it was 3000 nM.

In the case of VIDSPAGQA [Peptide 78.0316], the IC50 at HLA-A3.2 (A*0301) stood at 13000 nM; on HLA-A11 (A*1101), 9430 nM; at A31 (A*3101), 407 nM; against A*3301 it was 913 nM; on A*6801 it was 983 nM.

As to VSIEWRLRR [Peptide 9017.0088], the IC50 against HLA-A3.2 (A*0301) was 338 nM; against HLA-A11 (A*1101) it was 6.9 nM; against A31 (A*3101), 3.1 nM; against A*3301, 29 nM; against A*6801 it was 131 nM.

With VSIEWRQRR [Peptide 9017.0089], the IC50 on HLA-A3.2 (A*0301) was 1350 nM; against HLA-A11 (A*1101) it was 13 nM; at A31 (A*3101), 1.5 nM; against A*3301 it was 7.1 nM; at A*6801, 41 nM.

For VTIKIGGQIR [Peptide 1516.05], the IC50 was 13000 nM against HLA-A3.2 (A*0301); 389 nM against HLA-A11 (A*1101); 1140 nM at A31 (A*3101); above 20000 nM on A*3301; 46 nM against A*6801.

As to VTIRVAGQVK [Peptide 1516.04], the IC50 against HLA-A3.2 (A*0301) is 53 nM; on HLA-A11 (A*1101), 21 nM; on A31 (A*3101), 4600 nM; at A*3301, above 20000 nM; against A*6801 it was 52 nM.

For the compound VTIRVGGQLR [Peptide 1516.07], the IC50 at HLA-A3.2 (A*0301) turned out to be 3260 nM; against HLA-A11 (A*1101) it was 17 nM; against A31 (A*3101) it was 32 nM; at A*3301, 9430 nM; against A*6801, 28 nM.

Regarding VTIYYGVPVWK [Peptide 1525.03], the IC50 at HLA-A3.2 (A*0301) is 42 nM; at HLA-A11 (A*1101), 2.5 nM; against A31 (A*3101) it was 534 nM; on A*3301, above 20000 nM; on A*6801, 28 nM.

Consider VTIYYGVPVWR [Peptide 1525.04], for which the IC50 at HLA-A3.2 (A*0301) came to 920 nM; against HLA-A11 (A*1101), 3 nM; at A31 (A*3101), 4 nM; against A*3301, 51 nM; at A*6801, 3.4 nM.

As to VTVKIGGELK [Peptide 1516.03], the IC50 at HLA-A3.2 (A*0301) was 4110 nM; on HLA-A11 (A*1101) it was 39 nM; at A31 (A*3101), above 20000 nM; against A*3301, above 20000 nM; on A*6801, 33 nM.

For VTVKVGGQLR [Peptide 1516.06], the IC50 on HLA-A3.2 (A*0301) amounted to 8930 nM; on HLA-A11 (A*1101) it was 199 nM; at A31 (A*3101), 503 nM; on A*3301 it was 12700 nM; against A*6801 it was 96 nM.

Take VTVQYDNDKK [Peptide 88.0216]: the IC50 was 18200 nM against HLA-A3.2 (A*0301); 100 nM on HLA-A11 (A*1101); above 20000 nM on A31 (A*3101); above 20000 nM against A*3301; 1150 nM against A*6801.

Regarding VTVYYGIPVWR [Peptide 1525.05], the IC50 was 123 nM against HLA-A3.2 (A*0301); 17 nM against HLA-A11 (A*1101); 3.8 nM against A31 (A*3101); 4.5 nM against A*3301; 3.6 nM against A*6801.

Consider VTVYYGVPIWK [Peptide 1525.02], for which the IC50 at HLA-A3.2 (A*0301) was found to be 18 nM; at HLA-A11 (A*1101) it was 2.3 nM; against A31 (A*3101), 150 nM; at A*3301 it was 1350 nM; on A*6801, 5 nM.

For VTVYYGVPVWR [Peptide 1525.01], the IC50 at HLA-A3.2 (A*0301) turned out to be 560 nM; against HLA-A11 (A*1101), 22 nM; at A31 (A*3101), 19 nM; at A*3301, 511 nM; against A*6801, 29 nM.

As to VTYNSEVQR [Peptide 1589.29], the IC50 stood at 71 nM against HLA-A3.2 (A*0301); 25 nM on HLA-A11 (A*1101); 40 nM against A31 (A*3101); 152 nM against A*3301; 23 nM at A*6801.

For the compound VVLLLVRYK [Peptide 1587.05], the IC50 against HLA-A3.2 (A*0301) is 13 nM; against HLA-A11 (A*1101), 21 nM; at A31 (A*3101) it was 1.2 nM; on A*3301, 21 nM; on A*6801, 540 nM.

For the compound VVPAYNISK [Peptide 88.0397], the IC50 was 69 nM against HLA-A3.2 (A*0301); 14 nM against HLA-A11 (A*1101); above 20000 nM against A31 (A*3101); above 20000 nM at A*3301; 992 nM on A*6801.

In the case of VVQQLLMGA [Peptide 78.0338], the IC50 was above 20000 nM against HLA-A3.2 (A*0301); above 20000 nM at HLA-A11 (A*1101); 2830 nM against A31 (A*3101); 438 nM against A*3301; 1440 nM at A*6801.

Consider VVVKSPNHVK [Peptide 9012.0255], for which the IC50 is 256 nM at HLA-A3.2 (A*0301); 88 nM on HLA-A11 (A*1101); 7700 nM against A31 (A*3101); above 20000 nM against A*3301; 320 nM against A*6801.

Consider VVYRDSIPH [Peptide 78.0275], for which the IC50 at HLA-A3.2 (A*0301) is 401 nM; at HLA-A11 (A*1101), 178 nM; against A31 (A*3101), above 20000 nM; at A*3301, above 20000 nM; against A*6801 it was above 20000 nM.

In the case of WLIKRIRER [Peptide 9017.0122], the IC50 at HLA-A3.2 (A*0301) was 5160 nM; against HLA-A11 (A*1101), above 20000 nM; at A31 (A*3101), 85 nM; against A*3301, 20 nM; at A*6801, 50 nM.

As for WTIAYIEYR [Peptide 9017.0116], the IC50 on HLA-A3.2 (A*0301) worked out at 11300 nM; on HLA-A11 (A*1101) it was 31 nM; on A31 (A*3101) it was 97 nM; at A*3301, 14 nM; against A*6801, 8.6 nM.

For WTIAYIEYRK [Peptide 9017.0244], the IC50 at HLA-A3.2 (A*0301) worked out at 4650 nM; on HLA-A11 (A*1101) it was 62 nM; against A31 (A*3101) it was 885 nM; against A*3301 it was 493 nM; against A*6801, 1.2 nM.

Take WTYFDTYMR [Peptide 88.0346]: the IC50 against HLA-A3.2 (A*0301) was above 20000 nM; on HLA-A11 (A*1101) it was 293 nM; against A31 (A*3101), 332 nM; on A*3301 it was 95 nM; against A*6801, 3.8 nM.

For YGFRLGFLK [Peptide 1556.27], the IC50 was 41 nM at HLA-A3.2 (A*0301); 1 nM against HLA-A11 (A*1101); 224 nM on A31 (A*3101); 839 nM at A*3301; 16 nM against A*6801.

With YQNFQNADK [Peptide 99.0371], the IC50 on HLA-A3.2 (A*0301) is 2710 nM; against HLA-A11 (A*1101), 177 nM; against A31 (A*3101) it was 44700 nM; at A*3301, above 18400 nM; on A*6801 it was 19800 nM.

Regarding YVMAGVGSPK [Peptide 9012.0253], the IC50 against HLA-A3.2 (A*0301) worked out at 25 nM; against HLA-A11 (A*1101), 13 nM; on A31 (A*3101), 5730 nM; against A*3301 it was 219 nM; against A*6801, 18 nM.
